Results from patent US9624254B2, “Hydroxysafflor yellow pharmaceutical salts” (ZHEJIANG YONGNING PHARMACEUTICAL CO LTD, priority 2013, dated 2017).
Values joined by “and” are separate entries in the source; they are usually repeats but may differ in a detail not shown here. Equal entries are not always repeated. Where two headings read alike, the source gives them in different places.

Columns and labels:
acute hypoxia = assay: Acute cerebral anoxia, survival in a closed vessel; type: in vivo, mouse; conditions: Kunming mice
Procedure: 5. Effect on acute cerebral anoxia: A study was carried out using Kunming mice […]. The animals were kept in an environment lacking oxygen. The survival duration was recorded to examine whether resistance to acute hypoxia was increased after animals given the medicine. […] Animals were kept in the container until respiration ceased.

[1] = test system: acute myocardial infarction among rats; assay: Rat acute myocardial infarction model (coronary ligature): arrhythmia ranking, infarcted area, myocardial enzymes; type: in vivo
Procedure: Test method • 1. Preparation of rat acute myocardial infarction model: Intraperitoneal anesthesia was performed with 3% sodium pentobarbital, 45 mg/kg. Right femoral artery and vein catheter were inserted for blood pressure monitoring and intravenous administration, respectively. Artificial mechanical ventilation was given through tracheal intubation at a rate of 60 times/min, and with a ventilation volume of about 10 ml/kg. Electrocardiogram (ECG) was recorded by placing needle electrode in limbs. A longitudinal skin incision was made approximately 0.5 cm to left sternal border, followed by blunt dissection of the subcutaneous tissue. The pectoralis major, pectoralis minor, and the intercostal muscle were dissected, ligated and cut with scissors successively. The chest was open from the fourth intercostal space along the left sternal border where apical beat is most significant. Cut the pericardium open with scissors, and clamp the pericardium to bilateral chest wall with hemostatic forceps, to form a pericardial bed and expose vessels on the surface of the left ventricle. 6-0 silk suture was threaded through superficial layer of myocardium (i.e. the anterior descending coronary artery) about 2 mm under the left auricle. […] Arrhythmia ranking: The severity of arrhythmia which occurred within 30 min after coronary ligature was scored. • 3. Myocardial enzyme test: At the end of test, 2 ml of venous blood was taken, and centrifuged under 4° C. and 4000/min for 5 min. The supernatant was taken for myocardial enzyme test. Test items: LDH, AKP, CK. • 4. Measurement of myocardial infarcted area: 4 h after coronary ligature, puncture was performed to the anterior wall of the left ventricle, and carbon ink was injected. Then the animal was sacrificed, and the heart was removed and cleaned with normal saline. Blood and non-myocardial tissue such as vessel and fat were removed. Moisture was dried with absorbent paper. Then the heart was weighed. The heart was cut into sections of about 2 mm from cardiac apex to the base of heart parallel. The perfusion area (perfused with ink) and area at high risk of ischemia (without ink perfusion). […] The nonobstructive heart muscle stained was cut off with scissors, and the non-stained infarcted heart muscle was weighed, to calculate percentage of infarcted heart muscle in the area of heart muscle at risk by weight (weight of infarction area/weight of area at risk*100%). Statistical Analysis:
All the test data was expressed as mean±standard deviation, statistical test was done with analysis of variance (ANOVA), and the difference was considered significant if P<0.05.

[2] = test system: permeability of cerebral vessel; type: in vivo, rat
Procedure: 3. Effect on vasopermeability in rats: Rats were injected intravenously, once per day, for 7 days. After the last dose, rats were anesthetized, injected intravenously with Evans blue 50 mg/kg. After 5 minutes, bilateral common carotid arteries were ligated. The animals were sacrificed by decapitation after 3 hours. The brain was removed, weighed and immersed in formamide solution. It was placed in an incubator at 45° C. for 72 h. During this period, Evans blue in the cerebral vessel could be leached out into formamide solution. Testing the amount of Evans blue leached out into the formamide solution with spectrophotometer could indicate permeability of cerebral vessel.

[3] = test system: acute cerebral ischemia model (MCAO); type: in vivo, rat
[4] = test system: coronary ring from beagles (cardiac vascular ring); design: species or system dog
From the text: (§1) 1. Selectivity of isolated heart and cerebral vessel from dogs: During this study, Willis arteries and coronary ring from beagles were mounted on ex vivo vascular measuring device. Adjust the tension sensor, and add 10-6 mol/L phenylephrine into the liquid in bath cup, so as to maintain vascular tension. […] Calculate vasoconstriction or vasodilation change value.

[5] = test system: Willis arteries from beagles (cerebral vascular ring); design: species or system dog
From the text: as §1

[6] = test system: platelet adhered to the silk; type: in vivo, rat
Procedure: (§2) 6. Anti-platelet aggregation: The study included two stages, instrument testing and in vivo test. […] 4 ml of blood was taken from heart 2 hours after the last dose. The blood was centrifuged under a low speed to obtain platelet-rich […]; and centrifuged under a high speed to obtain […] lacking platelet. Adenosine diphosphate (ADP) and platelet-activating factor (PAF) were chosen as the platelet aggregation inducing agent. And platelet aggregometer was used for testing. […] 2) In vivo method: An arteriovenous short was created with latex tubing in rats. There was surgical silk mounted in the latex tubing. Using characteristics of platelet adhesion, the short was opened to allow blood to flow trans-arteriovenously through the latex tubing. And then silk was removed and weighed. The weight of platelet adhered to the silk was calculated by subtracting the dry weight.

blood viscosity = type: in vivo; conditions: rabbit
Procedure: 7. Effect on blood viscosity: Rabbit was treated intravenously, once per day, for 5 days. 2 hours after the last dose, blood was taken from heart and anticoagulated, and tested with blood rheometer directly.

cerebral blood flow = type: in vivo, dog
From the text: 4. Effect on cerebral blood flow of dog: Beagles were used as the study animal. After the dog was anesthetized with sodium pentobarbital, external jugular vein, internal jugular vein and vertebral artery were isolated surgically. The external jugular vein was ligated. Flow probes were placed in internal jugular vein and vertebral artery. Two times of the total blood flow recorded by both probes represented blood supply of the whole brain. At the end of the study, the brain was removed and weighed to calculate blood flow per 100 g of brain tissue.

[7] = type: physicochemical; conditions: for Content: calculated as hydroxysafflor yellow A
[8] = test system: platelet aggregation induced by ADP; assay: Anti-platelet aggregation, instrument testing (platelet aggregometer), ADP; type: in vivo; conditions: rabbit, intravenous once per day for 5 days, blood 2 hours after last dose, three doses
Procedure: as §2

[9] = test system: platelet aggregation induced by PAF; assay: Anti-platelet aggregation, instrument testing (platelet aggregometer), PAF; type: in vivo; conditions: rabbit, intravenous once per day for 5 days, blood 2 hours after last dose, three doses
Procedure: as §2

[10] = serum, rats, 40 mg/kg intravenously, end of test
[11] = 10-6 mol/L phenylephrine tension, 10 mg/ml added every 5 min, 4-5 times
[12] = beagles, intravenous, medium and high dose

`O=C(/C=C/c1ccc(O)cc1)C1=C(O)C(O)(C2OC(CO)C(O)C(O)C2O)C([O][Ca][O]C2=C(C3OC(CO)C(O)C(O)C3O)C(=O)C(C(=O)/C=C/c3ccc(O)cc3)=C(O)C2(O)C2OC(CO)C(O)C(O)C2O)=C(C2OC(CO)C(O)C(O)C2O)C1=O` (centres unmarked) [Calcium hydroxysafflor yellow A] showed a Survival duration (acute hypoxia; high dose) of 37 min, a Survival duration (acute hypoxia; low dose) of 35 min and a Survival duration (acute hypoxia; medium dose) of 38 min. The “Extent of myocardial infarction compared to hydroxysafflor yellow for injection (in words)” value ([1]; rat, in vivo) was “better efficacy in terms of reducing the extent of myocardial infarction”, the “Effect on serum LDH and CK (in words)” value ([1]; rat, in vivo, iv) was “more significant efficacy” and the “Effect on severity of arrhythmia (in words)” value ([1]; rat, in vivo, iv) was “more effective”. The “AKP (IU/L)” value ([1]; rat, in vivo, iv, 40 mg/kg) was 152 ± 24 IU/L, the Arrhythmia ranking ([1]; rat, in vivo, iv, 40 mg/kg) was 1.46 ± 0.3 and the “CK (IU/L)” value ([1]; rat, in vivo, iv, 40 mg/kg) was 2139 ± 594 IU/L. The “Infarction area” value ([1]; rat, in vivo, iv, 40 mg/kg) was 0.11 ± 0.04 g, the “Infarction rate (%)” value ([1]; rat, in vivo, iv, 40 mg/kg) was 29 ± 6 % and the “LDH (IU/L)” value ([1]; rat, in vivo, iv, 40 mg/kg) was 463 ± 65 IU/L. For the same compound, the “Evans blue leached out from cerebral vessel (in words)” value ([2]; rat, in vivo, iv) was “very significant effect of reducing Evans blue being leached out from cerebral vessel”, the “Area of cerebral infarction” value ([3]; rat, in vivo, iv) was 41.3% and 25.7% and 21.6% and the “Dilation on cardiac vascular ring” value [4] was 37.1%. The “Dilation on cerebral vascular ring” value [5] was 69.7%, the “Weight of platelet adhered on the silk” value ([6]; rat, in vivo) was 13.9 ± 1.54 mg and 10.26 ± 1.15 mg and 8.73 ± 1.79 mg and the “Blood viscosity effect compared with nimodipine positive control (in words)” value (blood viscosity; in vivo) was “superior to the positive control group”. The “Blood viscosity, low shear, medium shear and high shear (in words)” value (blood viscosity; in vivo, iv) was “decreased as dose increased”, the “Cerebral blood flow (in words)” value (cerebral blood flow; dog, in vivo, iv) was “significantly increase blood flow” and the “Time for which blood flow was maintained” value (cerebral blood flow; dog, in vivo, iv) was “about 15 min”. For the same compound, the Total purity ([7]; Accelerated 0 month) was 1.2%, the Total purity ([7]; Accelerated 1 month) was 1.4% and the Content ([7]; Accelerated 1 month) was 95.6%. It also gave a Total purity ([7]; Accelerated 2 months) of 1.9%, a Content ([7]; Accelerated 2 months) of 95.1% and a Total purity ([7]; Accelerated 3 months) of 2.6%. It also gave a Content ([7]; Accelerated 3 months) of 94.5%.
Compound `O=C(/C=C/c1ccc(O)cc1)C1=C(O)C(O)(C2OC(CO)C(O)C(O)C2O)C([O][Mg][O]C2=C(C3OC(CO)C(O)C(O)C3O)C(=O)C(C(=O)/C=C/c3ccc(O)cc3)=C(O)C2(O)C2OC(CO)C(O)C(O)C2O)=C(C2OC(CO)C(O)C(O)C2O)C1=O` (centres unmarked) [Magnesium hydroxysafflor yellow A] has a Total purity ([7]; Accelerated 0 month) of 1.0%, a Content ([7]; Accelerated 0 month) of 97.4% and a Total purity ([7]; Accelerated 1 month) of 1.3%. The Content ([7]; Accelerated 1 month) was 97.0%, the Total purity ([7]; Accelerated 2 months) was 1.8% and the Content ([7]; Accelerated 2 months) was 96.4%. The Total purity ([7]; Accelerated 3 months) was 2.4% and the Content ([7]; Accelerated 3 months) was 95.8%.
With `COCCOC(=O)C1=C(C)NC(C)=C(C(=O)OC(C)C)C1c1cccc([N+](=O)[O-])c1` (centres unmarked) [nimodipine, reference compound] the “Area of cerebral infarction” value ([3]; SD rats, positive group, 24 h after MCAO) was 15.7%.
Potassium hydroxysafflor yellow A gave a Survival duration (acute hypoxia; high dose) of 36 min, a Survival duration (acute hypoxia; low dose) of 36 min and a Survival duration (acute hypoxia; medium dose) of 37 min. The “Effect against platelet aggregation induced by ADP (in words)” value [8] was “very good anti-platelet aggregation effect”, the “Extent of myocardial infarction compared to hydroxysafflor yellow for injection (in words)” value ([1]; rats) was “better efficacy in terms of reducing the extent of myocardial infarction” and the “Infarction area” value ([1]; rats, 40 mg/kg intravenously, 4 h after coronary ligature, NBT staining, mean±SD) was 0.10 ± 0.02 g. The “Infarction rate (%)” value ([1]; rats, 40 mg/kg intravenously, weight of infarction area/weight of area at risk*100%) was 26 ± 9 %, the Arrhythmia ranking ([1]; rats, 40 mg/kg intravenously, within 30 min after coronary ligature, mean±SD, n=8) was 1.38 ± 0.5 and the “Effect on serum LDH and CK (in words)” value ([1]; rats, given intravenously) was “more significant efficacy”. For the same compound, the “Effect on severity of arrhythmia (in words)” value ([1]; rats, given intravenously, after coronary ligature) was “more effective”, the “AKP (IU/L)” value [1, 10] was 144 ± 19 IU/L and the “CK (IU/L)” value [1, 10] was 2203 ± 530 IU/L. For the same compound, the “LDH (IU/L)” value [1, 10] was 451 ± 78 IU/L, the “Evans blue leached out from cerebral vessel (in words)” value ([2]; rats, intravenous once per day for 7 days, high and medium dose groups) was “very significant effect of reducing Evans blue being leached out from cerebral vessel” and the “Area of cerebral infarction” value ([3]; rat, in vivo, iv) was 38.2% and 27.6% and 21.9%. For the same compound, the “Effect against platelet aggregation induced by PAF (in words)” value [9] was “very good anti-platelet aggregation effect”, the “Dilation on cardiac vascular ring” value [4, 11] was 31.6% and the “Dilation on cerebral vascular ring” value [5, 11] was 73.1%. For the same compound, the “Weight of platelet adhered on the silk” value ([6]; rats, arteriovenous short, high dose) was 8.91 ± 1.34 mg, the “Weight of platelet adhered on the silk” value ([6]; rats, arteriovenous short, low dose) was 13.6 ± 1.89 mg and the “Weight of platelet adhered on the silk” value ([6]; rats, arteriovenous short, medium dose) was 9.90 ± 1.53 mg. The “Blood viscosity effect compared with nimodipine positive control (in words)” value (blood viscosity; high dose groups) was “superior to the positive control group”, the “Blood viscosity, low shear, medium shear and high shear (in words)” value (blood viscosity; intravenous once per day for 5 days, compared to solvent control group) was “decreased as dose increased” and the “Cerebral blood flow (in words)” value (cerebral blood flow; [12]) was “significantly increase blood flow”. For the same compound, the “Time for which blood flow was maintained” value (cerebral blood flow; [12]) was “about 15 min”.
